From patent US20110256241A1, “METHODS AND COMPOSITIONS FOR THE TREATMENT OF CANCER” (TRASLATIONAL CANCER DRUGS PHARMA, S.L., priority 2008, published 2011)

What was measured:
DLD-1 cells = assay: Apoptosis detection by flow cytometry, Annexin V & IP; assay type: cell-based, human; conditions: DLD-1, 7 hours treatment
Description: Cell death was analysed by flow cytometry using de Aposcreen Annexin V Apoptosis Kit (Southern Biotech) according to manufacturer procedures. Cells were seeded at 4×10^5 cells per well in six-well. Twenty-four hours later, cells were treated with the indicated compounds. Cells were rinsed twice in cold PBS and after removing it cells were resuspended in cold 1× binding buffer to a concentration from 1×10^6 to 1×10^7 cells/mL. 100 μl of these cells were collected in a flow cytometry tube and 10 μl of Annexin V were added. After gently vortexing, tubes were incubated for 15 minutes on ice, protected from light. Without washing, 380 μl of 1× binding buffer were added to each sample prior to 10 μl of propidium iodine. Cells were immediately analysed by flow cytometry.
The synergism observed in vitro was also analysed by flow cytometry using Annexin V & IP staining to distinguish between apoptosis and necrosis or late apoptosis. […] When DLD-1 cells are treated with TRAIL alone there is a 35% of apoptosis. In combination tumour cell death is amplified up to 50%. When DLD-1 are treated with RSM-932A (TCD-717) in combination with TRAIL there is a 55% increase in tumour cell death but mainly the necrotic or late apoptosis population because RSM-932A (TCD-717) has an effect that is faster than MN58. […]

[1] = tested on: DR5 (TNFRSF10B or TRAIL-R2) in DLD-1 cell line; assay: DR5 levels by quantitative PCR; assay type: cell-based, human
Description: (§1) 1 μg of RNA was used to generate cDNA using High-Capacity cDNA Archive Kit (Applied Biosystems), and quantitative real-time PCR was carried out in triplicate using the ABI PRISM 7700 Sequence Detector (Applied Biosystems). GAPDH and 18S ribosomal mRNA were amplified as internal controls. Probes used for amplification were from Applied Biosystems as Taqman Gene Expression Assays (ASAH1: HS00602774—M1 Taqman Probe, ASAH2: HS00184096_M1 Taqman Probe and ASAH3: HS00370322_M1 Taqman Probe, DUT: HS00798995_S1 Taqman Probe, TYMS: HS00426591_M1 Taqman Probe, UPP1: HS00427695—M1 Taqman Probe, RRM2: HS00357247_G1 Taqman Probe). The 2-^ΔΔCt method was used (Livak K J., Methods. 2001; 25:402-8) to calculate the relative expression of each gene.
(§2) TRAIL is a member of the tumour necrosis factor (TNF) superfamily and can induce apoptosis by the extrinsic pathway associated via stimulation of death receptors DR4 (TNFRSF10A or TRAIL-R1) and DR5 (TNFRSF10B or TRAIL-R2). In order to determine the mechanism of the effectivity of the combined therapy of TRAIL and ChoK inhibitors, DR5 and DR4 levels were analysed by quantitative PCR in DLD-1 and SW620 cell lines after treatments with MN58b, TRAIL or their simultaneous combination.

[2] = tested on: DR5 (TNFRSF10B or TRAIL-R2) in SW620 cell line; assay: DR5 levels by quantitative PCR; assay type: cell-based, human
Description: as §1, §2

H460 xenografts = assay: NSCLC xenografts, in vivo tumor growth inhibition; conditions: FIG. 7A, single agents
Description: Indicated cells were resuspended in DMEM just before inoculation (10^6 cells/0.1 ml), and injected subcutaneously in nu/nu immunosuppressed mice. Mice were kept under standard laboratory conditions according to the guidelines of the Spanish Government. When tumours reached a mean volume of 0.1 cm^3, mice were randomized to control and treated groups. Treatments with the antitumoral agents (and vehicle for control mice) were performed i.p. with following the indicated schedules. Tumors were monitored three times a week by measuring the major (D) and minor (d) diameters, and tumour volume was calculated by V=(D*d^2)/2. Statistical analysis of significant changes in tumour growth was calculated using SPSS software v. 13.0.

[3] = tested on: Primary BEC (human primary bronchial epithelial cells); assay: Cell proliferation assay (MTT); assay type: cell-based; conditions: 48 h, inhibitor and unit not printed in table (MN58b, μM), read-out: IC50 48 h
Description: (§3) All cell lines used in this study were maintained under standard conditions of temperature (37° C.), humidity (95%), and carbon dioxide (5%). Human primary bronchial epithelial cells, NHBE (BEC) (Cambrex, CC-2541) were grown in BEGM (Bronchial Epithelial cell growth media) BulletKit (Cambrex, CC-3170). Human primary mammary epithelial cells, HMEC (Clonetics, CC-2551) were grown in MEBM medium supplemented with a bullet kit (Clonetics, CC-3150). Epithelial non-small lung cancer cells H460 and H1299, and small cell lung cancer cell lines H510 and H82 were maintained in RPMI supplemented with 10% Fetal Bovine Serum (FBS) (Life Technologies, Grand Island, N.Y.).
(§4) Cells were seeded on 96-well plates (BD, Falcon, Bioscience, San Jose, Calif., USA) at a density of 6000 cells/well, and incubated for 24 h under standard conditions. […] Absorbance is read at 595 nm in a VersaMax Microplate Reader (Molecular Devices, Sunnyvale, Calif., USA). For sensitization with acid ceramidase inhibitor, cells were pre-treated 4 hours with the correspondent IC50 for NOE before treatment with ChoK inhibitors. NOE (N-Oleoyl ethanolamine) was obtained from Calbiochem (La Jolla, Calif., USA).

H460 cells = assay: Cell proliferation assay (MTT); assay type: cell-based, human
Description: as §3
as §4, with “conditions. Then, cells were treated with different concentrations of the ChoK inhibitors (quadruplicates of each concentration) and maintained for 72 hours.” for “conditions.”
Thus, disruption in the levels of acid ceramidase may allow ChoK inhibitors to have a better effect in these cells. To verify this hypothesis, we used the previously characterized acid ceramidase inhibitor, N-Oleoylethanolamine (NOE) (Grijalvo S., Chem Phys Lipids. 2006; 144:69-84), to investigate if the inhibition of acid ceramidase sensitizes tumour cell lines to ChoK inhibitors. To that end, H460 cells were pre-treated with NOE for three hours to inhibit acid ceramidase.
H460 cells were pre-treated with these compounds for three hours to inhibit ceramidases. […] Furthermore, the combined use of ChoK inhibitors and acid ceramidase inhibitors provides a further stronger anticancer activity.

Q: What does the source list for `CN(C)c1cc[n+](Cc2ccc(CCCCc3ccc(C[n+]4ccc(N(C)C)cc4)cc3)cc2)cc1` [MN58b, 1,4-(4-4′-Bis-((4-(dimethylamine)pyridinium-1-yl)methyl)diphenyl)butane dibromide]?
A: apoptosis (DLD-1 cells): only a little increase in apoptosis; increase in DR5 levels [1]: 1.6 fold; increase in DR5 levels [2]: 2 fold; Statistical significance (p), tumour growth (H460 xenografts): 0.09; IC 50 [3]: 40.5 ± 6.2 µM; figure in parentheses after IC50 48 h (not defined; fold vs primary cells) (H460 cells): 6; figure in parentheses after IC50 72 h (not defined; fold vs primary cells) (H460 cells): 8; figure in parentheses after IC50 144 h (not defined; fold vs primary cells) (H460 cells): 3
